From patent publication US20100239556A1, “PROMOTING ECM PRODUCTION BY FIBROBLAST CELLS AND/OR PROMOTING MIGRATION OF FIBROBLAST CELLS IN A BIOLOGICAL SYSTEM” (TGR BioScience Pty Ltd., priority 2006, published 2010)

Legend:
[1] = tested on: HFF cells; assay: Collagen I production in the presence of dexamethasone; assay type: cell-based, human
Method: Primary human foreskin fibroblast cells (HFF) were seeded into 96 well plates at a density of 1.2×10^4 cells/well and cultured overnight in 10% fetal bovine serum/Dulbecco's minimum essential media (10% FBS/DMEM) at 37° C. and 5% CO2. The cells were then starved overnight in serum free DMEM and triplicate wells treated for six hours with a range of doses of proteins with peroxidase activity; horse radish peroxidase (HRP; 0.2-50 ug/ml), Arthromyces ramosus peroxidase (ARP; 0.2-50 ug/ml), microperoxidase (MP; 8-500 ug/ml), soy bean peroxidase (SBP; 0.2-100 ug/ml) and lactoperoxidase (LP; 10-310 ug/ml) (all obtained from Sigma-Aldrich). At the end of the six hour treatment period, the media was aspirated and replaced with fresh serum free DMEM and the cells cultured for a further 72 hours. After 72 hours the culture media was collected for assessment of secreted, soluble collagen types I, III and VI as well as fibronectin protein and the cells assessed for viability/growth using an alamar blue fluorescent dye assay. This assay measures the reduction of oxidized, blue nonfluorescent Alamar Blue reagent to a pink fluorescent dye in the cell medium, such that the higher the amount of reduction, the greater the cell number and/or activity (O'Brien Eur J Biochem 267 2000). Briefly, cells were bathed in a 10% Alamar Blue/phosphate-buffered saline (PBS) solution for 30-60 minutes and fluorescence measured at wavelengths of 485 nm excitation and 595 nm emission using a Wallac Victor Multilabel HTS counter. Relative fluorescent units (RFU) for each sample were normalized to control wells (DMEM only treated cells) and data expressed as mean±standard error of the mean (sem) for triplicate wells. Experiments were repeated at least three times with the combined data from all experiments shown.
The amount of soluble collagen types I, III, and VI in HFF conditioned media was measured by a direct coat ELISA method using standard curves constructed from purified human collagen I, III or VI (extracted from human placenta; col I, BD Biosciences; col III and VI, Rocklands Immunochemicals) and fibronectin (extracted from human plasma, Chemicon). Samples and standards (20 μl/well) were added to a 384 well spectraplate (Packard BioScience) and left at room temperature (RT) overnight. […] After a final wash (6×PBS-T), enhancement solution was added for at least 10 minutes and fluorescence measured at excitation 340 nm and emission 615 nm using a Wallac Victor Multilabel HTS counter. The respective ECM concentration of each sample was determined from the standard curve (μg/ml) and normalized to control wells (DMEM only treated cells) with the mean±sem for triplicate wells calculated. […]

[2] = tested on: HFF cells; assay: ECM production within INTEGRA scaffold (collagen I immunohistochemistry); assay type: cell-based, human; settings: SBP 25 μg/ml pre-, pre+post- or post-treatment
Source text: INTEGRA® was cut into lcm x lcm pieces using a sterile scalpel, the pieces transferred to a petri dish using sterile forceps and washed four times each with PBS followed by serum-free DMEM, to remove the alcohol storage medium and to equilibrate the porous scaffold for exposure to cells. After the last wash, the INTEGRA® pieces were transferred to the wells of a 12 well tissue culture plate (collagen layer facing up) immersed in media containing proteins having peroxidase activity. This “pre-treatment” of the INTEGRA® with proteins having peroxidase activity was performed for up to 16 hours at 37° C. in a CO2 incubator. After the “pre-incubation” period, the media was replaced with fresh DMEM supplemented with 10% FBS (ie normal growth media as the control) containing 5×10^5 human fibroblast cells plus or minus proteins having peroxidase activity. After allowing 24 hours for the fibroblast cells to attach to the collagen matrix of the INTEGRA® scaffold, the INTEGRA® pieces were transferred to fresh 12 well plates to ensure any cells not attached to the matrix surface were removed. Fresh media containing proteins with peroxidase activity were added to the wells and the INTEGRA® pieces incubated for up to 14 days (“post-treatment” period) with the media changed every 7 days as necessary. At the end of the experiment the INTEGRA® pieces were harvested and fixed in 10% buffered formaldehyde before they were processed, embedded in paraffin wax, cut in cross-section and placed onto microscope slides for histological and immunohistochemical analysis.
To confirm proteins having peroxidase activity promote the generation of a three-dimensional human tissue by stimulating the production of collagen and other ECM components to fill the interstices of a three-dimensional framework or scaffold, INTEGRA® pieces collected from the experiments described in Example 3 were analysed for the production of Collagen I (as a representative ECM protein) using immunohistochemistry. […]

Substance	increase in collagen I levels ([1]; 3.1-25 μg/ml, no dexamethasone)	collagen accumulation in cells treated with both dexamethasone and ARP ([1]; dexamethasone 20 μM)	production and deposition of cell-associated ECM in the scaffold [2]
Arthromyces ramosus peroxidase [ARP]	4.5-7 fold	significant levels of collagen accumulation were still evident	
soy bean peroxidase [SBP]			as effective at promoting the production and depositon of cell-associated ECM throughout the full thickness of the scaffold
